Columns and labels:
AAK1 [1] = target: T1, AAK1 (Homo sapiens, UniProt Q2M2I8); test: ITC; thermal shift
BIKE [2] = target: T2, BIKE (Homo sapiens, UniProt Q9NSY1, K320A/K321A); test: co-crystal structure ([…] Å); ITC; thermal shift; type: binding
T2 construct: gene BMP2K; BIKE38–345 (kinase domain)

AAK1 [3] = target: T1, AAK1; test: biochemical; design: kinase domain; Thermal shift assay (DSF, SYPRO Orange), 2 uM kinase domain, mean delta Tm of triplicates versus DMSO; details: read-out: AAK1
Method: (§1) All measurements were performed in triplicate and mean values were reported for all compounds (Table S1). […] However, NAKs are often omitted from selectivity panels, including commercial screens.

BIKE [4] = target: T3, BIKE (Homo sapiens, UniProt Q9NSY1); test: biochemical; design: Thermal shift assay (DSF, SYPRO Orange), 2 uM kinase domain, mean delta Tm of triplicates versus DMSO; details: read-out: BIKE
T3 construct: gene BMP2K; catalytic domain-containing construct
Method: as §1

MPSK1 = target: T4, MPSK1 (Homo sapiens, UniProt O75716); test: biochemical; design: Thermal shift assay (DSF, SYPRO Orange), 2 uM kinase domain, mean delta Tm of triplicates versus DMSO; details: read-out: MPSK1
T4 construct: gene STK16; catalytic domain-containing construct
Method: as §1

GAK = target: T5, GAK (Homo sapiens, UniProt O14976); test: biochemical; design: Thermal shift assay (DSF, SYPRO Orange), 2 uM kinase domain, mean delta Tm of triplicates versus DMSO; details: read-out: GAK
T5 construct: catalytic domain-containing construct
T5 sequence (O14976 1-1311): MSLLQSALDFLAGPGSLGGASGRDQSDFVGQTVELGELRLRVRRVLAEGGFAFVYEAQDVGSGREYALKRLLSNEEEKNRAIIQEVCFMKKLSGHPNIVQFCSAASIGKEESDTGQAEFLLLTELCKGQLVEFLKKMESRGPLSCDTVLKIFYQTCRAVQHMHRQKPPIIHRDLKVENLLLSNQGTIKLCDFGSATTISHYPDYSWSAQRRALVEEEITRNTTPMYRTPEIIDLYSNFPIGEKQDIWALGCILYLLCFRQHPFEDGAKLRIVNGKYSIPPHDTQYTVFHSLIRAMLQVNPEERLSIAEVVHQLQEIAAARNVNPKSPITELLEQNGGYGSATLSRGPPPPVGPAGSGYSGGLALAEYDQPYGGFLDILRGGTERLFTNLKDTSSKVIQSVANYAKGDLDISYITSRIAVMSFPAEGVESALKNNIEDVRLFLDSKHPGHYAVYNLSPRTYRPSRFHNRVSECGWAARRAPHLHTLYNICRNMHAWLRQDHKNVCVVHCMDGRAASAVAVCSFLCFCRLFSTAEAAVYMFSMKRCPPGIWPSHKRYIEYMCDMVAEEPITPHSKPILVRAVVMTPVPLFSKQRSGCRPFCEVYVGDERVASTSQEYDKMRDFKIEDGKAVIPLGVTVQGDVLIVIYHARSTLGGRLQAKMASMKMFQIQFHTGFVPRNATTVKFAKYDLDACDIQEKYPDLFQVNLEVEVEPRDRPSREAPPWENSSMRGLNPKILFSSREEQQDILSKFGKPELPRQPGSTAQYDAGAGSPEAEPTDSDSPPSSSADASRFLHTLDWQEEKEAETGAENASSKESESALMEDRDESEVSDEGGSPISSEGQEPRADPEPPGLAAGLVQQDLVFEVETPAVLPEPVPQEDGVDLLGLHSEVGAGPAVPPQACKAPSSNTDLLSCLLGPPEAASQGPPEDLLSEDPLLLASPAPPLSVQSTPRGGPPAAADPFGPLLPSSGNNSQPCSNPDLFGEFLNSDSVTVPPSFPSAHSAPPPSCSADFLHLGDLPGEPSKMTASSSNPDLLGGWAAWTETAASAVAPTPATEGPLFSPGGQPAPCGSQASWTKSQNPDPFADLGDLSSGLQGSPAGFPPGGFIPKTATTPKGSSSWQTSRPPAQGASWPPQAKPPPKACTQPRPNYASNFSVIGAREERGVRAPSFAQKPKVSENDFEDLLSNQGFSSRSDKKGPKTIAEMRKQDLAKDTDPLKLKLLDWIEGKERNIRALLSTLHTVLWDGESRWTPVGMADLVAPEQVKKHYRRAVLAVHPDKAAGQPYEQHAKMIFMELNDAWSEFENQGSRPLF
Method: as §1

T3 sequence (Q9NSY1 whole entry, the tested form may be a part): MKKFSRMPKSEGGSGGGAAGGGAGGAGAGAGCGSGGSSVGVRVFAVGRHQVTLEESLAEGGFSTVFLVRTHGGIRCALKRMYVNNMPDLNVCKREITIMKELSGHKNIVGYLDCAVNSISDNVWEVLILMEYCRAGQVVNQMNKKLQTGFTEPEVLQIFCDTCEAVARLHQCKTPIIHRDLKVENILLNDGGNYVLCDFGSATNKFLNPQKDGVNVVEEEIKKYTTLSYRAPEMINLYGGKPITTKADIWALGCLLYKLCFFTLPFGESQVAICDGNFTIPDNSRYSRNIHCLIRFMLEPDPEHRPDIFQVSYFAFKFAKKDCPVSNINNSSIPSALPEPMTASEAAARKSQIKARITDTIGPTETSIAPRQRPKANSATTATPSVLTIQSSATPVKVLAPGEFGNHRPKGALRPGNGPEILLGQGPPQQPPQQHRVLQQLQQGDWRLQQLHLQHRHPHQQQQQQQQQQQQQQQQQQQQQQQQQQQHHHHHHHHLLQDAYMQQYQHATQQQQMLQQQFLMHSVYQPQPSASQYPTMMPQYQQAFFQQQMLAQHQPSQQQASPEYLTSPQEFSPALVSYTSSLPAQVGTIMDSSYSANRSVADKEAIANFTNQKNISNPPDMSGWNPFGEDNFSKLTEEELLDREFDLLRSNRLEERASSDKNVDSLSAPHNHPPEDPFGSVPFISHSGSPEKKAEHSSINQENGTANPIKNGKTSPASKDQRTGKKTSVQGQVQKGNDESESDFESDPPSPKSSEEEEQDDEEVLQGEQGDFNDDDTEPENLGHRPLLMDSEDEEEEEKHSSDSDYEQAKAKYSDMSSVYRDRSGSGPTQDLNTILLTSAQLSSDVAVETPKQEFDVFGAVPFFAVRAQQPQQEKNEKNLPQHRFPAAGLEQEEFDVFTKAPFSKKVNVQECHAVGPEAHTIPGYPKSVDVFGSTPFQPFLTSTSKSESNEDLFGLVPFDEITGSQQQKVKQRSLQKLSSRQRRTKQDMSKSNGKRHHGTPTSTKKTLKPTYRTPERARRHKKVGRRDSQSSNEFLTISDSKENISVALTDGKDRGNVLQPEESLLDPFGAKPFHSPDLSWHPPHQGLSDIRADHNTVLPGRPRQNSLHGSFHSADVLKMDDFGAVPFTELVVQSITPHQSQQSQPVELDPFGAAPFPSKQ
T1 sequence (Q2M2I8 27-365 limits assumed): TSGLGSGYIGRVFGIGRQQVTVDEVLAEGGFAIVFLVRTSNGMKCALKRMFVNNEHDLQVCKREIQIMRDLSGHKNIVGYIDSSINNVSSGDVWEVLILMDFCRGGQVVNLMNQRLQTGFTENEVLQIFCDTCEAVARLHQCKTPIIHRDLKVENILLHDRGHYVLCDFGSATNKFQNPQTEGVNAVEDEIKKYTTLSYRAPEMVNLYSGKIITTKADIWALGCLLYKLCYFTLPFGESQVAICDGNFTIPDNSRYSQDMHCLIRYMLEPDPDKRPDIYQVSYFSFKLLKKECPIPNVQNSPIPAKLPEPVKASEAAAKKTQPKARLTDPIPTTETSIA
T4 sequence (O75716 whole entry, the tested form may be a part): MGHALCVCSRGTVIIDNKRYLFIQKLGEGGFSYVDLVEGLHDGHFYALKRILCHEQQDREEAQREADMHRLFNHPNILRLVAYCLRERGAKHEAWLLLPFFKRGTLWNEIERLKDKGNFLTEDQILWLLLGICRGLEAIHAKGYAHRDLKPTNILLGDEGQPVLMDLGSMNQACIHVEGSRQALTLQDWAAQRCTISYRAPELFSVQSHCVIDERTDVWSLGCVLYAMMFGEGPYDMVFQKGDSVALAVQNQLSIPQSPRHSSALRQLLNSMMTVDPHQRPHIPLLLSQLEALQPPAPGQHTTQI
T2 sequence (Q9NSY1 38-345 K320A/K321A): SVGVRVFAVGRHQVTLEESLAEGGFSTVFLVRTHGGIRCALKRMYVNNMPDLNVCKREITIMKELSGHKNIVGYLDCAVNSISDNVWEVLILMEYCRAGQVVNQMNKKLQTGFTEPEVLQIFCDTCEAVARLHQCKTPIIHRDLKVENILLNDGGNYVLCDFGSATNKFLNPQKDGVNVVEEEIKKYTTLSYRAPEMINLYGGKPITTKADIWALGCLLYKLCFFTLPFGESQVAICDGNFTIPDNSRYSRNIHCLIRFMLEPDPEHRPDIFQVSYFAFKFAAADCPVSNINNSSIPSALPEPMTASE

| ΔTm at 12.5 µM (AAK1 [3]) [°C] | ΔTm at 12.5 µM (BIKE [4]) [°C] | ΔTm at 12.5 µM (MPSK1) [°C] | ΔTm at 12.5 µM (GAK) [°C] | SMILES | Kd (AAK1 [1]) [nM] | Kd (BIKE [2]) [nM] |
| --- | --- | --- | --- | --- | --- | --- |
| 0.373 | 0.477 | 1.12 | -0.433 | CNC(=O)c1cccc(-c2ccc3c(N4CCOC[C@@H]4C)nc(N4CCOC[C@@H]4C)nc3n2)c1 [AZD2014] |  |  |
| 5.61 | 7.73 | 10.1 | 10.6 | CNC(=O)c1nn(C)c2c1C(C)(C)Cc1cnc(Nc3ccc(N4CCN(C)CC4)cc3)nc1-2 [Milciclib] |  |  |
| 0.24 | 0.245 | 0.443 | -0.487 | O=c1sn(-c2cccc3ccccc23)c(=O)n1Cc1ccccc1 [Tideglusib] |  |  |
| -0.103 | 0.16 | 0.217 | -0.607 | Cc1ccc(-n2nc(C(C)(C)C)cc2NC(=O)Nc2ccc(OCCN3CCOCC3)c3ccccc23)cc1 [Doramapimod] |  |  |
| 1.93 | 1.16 | 0.233 | 0.377 | S=C(NCc1ccc2c(c1)OCO2)N1CCN(c2ncnc3c2oc2ccccc23)CC1 [Amuvatinib] |  |  |
| 6.86 | 10.2 | 9.07 | 0.333 | Cc1cc(Nc2cc(CN3CCOCC3)c3nc(C)c(Cc4ccc(Cl)cc4F)n3n2)n[nH]1 [Gandotinib] |  |  |

| SMILES | ΔTm at 12.5 µM (AAK1 [3]) [°C] | ΔTm at 12.5 µM (BIKE [4]) [°C] | ΔTm at 12.5 µM (MPSK1) [°C] | ΔTm at 12.5 µM (GAK) [°C] | Kd (AAK1 [1]) [nM] | Kd (BIKE [2]) [nM] |
| --- | --- | --- | --- | --- | --- | --- |
| NC(=O)Nc1cc(-c2cccc(F)c2)sc1C(=O)N[C@H]1CCCNC1 [AZD7762] | 10.8 | 12.6 | 3.46 | 5.39 | 36.5 | 33.1 |

Source: article PMC4780864, “Family-wide Structural Analysis of Human Numb-Associated Protein Kinases” (Structure(London, England:1993), 2016)
